The values that follow come from patent US11167046B2, “IR dyes for fluorescence imaging” (LI-COR, INC., priority 2014, dated 2021).

The nature of data set [1]: Fluorescent signal analysis of mouse urine. Conditions: urine extracted with acetonitrile:methanol; Odyssey CLx, 800 nm.
Data set [2] can be described thus: Elimination routes in mice: serial whole animal imaging and organ imaging. The class given is in vivo, nude mice. Conditions: for plasma protein binding: inferred from liver retention / clearance; for excretion / elimination route: 1 nmole by tail vein injection; for signal in kidneys and liver, organ 1/10th LUT scale: organs harvested after 24 hours, 1 nmole tail vein. Here is the method: This example describes an experiment to evaluate the excretion of the dyes described herein from animals injected with such. The dyes tested were stable cyanine dyes (IRdyes): 800CW, 800BK-sulfonate (compound of Formula 1; 800BK or BK) and 800BK-NOS (compound of Formula 2; 800NOS or NOS). In this study 12 nude mice (3 per treatment group) were injected with either (1) no probe (control group); (2) 800CW; (3) 800NOS; or (4) 800BK. The three probes (800CW-1166 g/mole (should have been 1091.1 g/mole), 800NOS-1011.09 g/mole, and 800BK-1113.14 g/mole) were dissolved in PBS. A spot test of the three probes was performed to detect the fluorescent signal when diluted to the injection dose of 1 nmole/100 μl (FIG. 12).
The mice received 1 nmole of dye by tail vein injection. The mice were imaged serially over 24 hours after IV injection: 5 minutes, 1 hour, 2 hours, 4 hours, 6 hours and 24 hours after injection. A representative series of images are presented in FIGS. 13A-13C of one animal per dye. All the data was normalized to the same LUT. A control mouse (no probe) was used as a reference (no signal control). Imaging was performed using the Pearl® Trilogy Imaging System (LI-COR®).
The mice were then sacrificed and their organs and tissue (i.e., liver, kidney, lungs, spleen and muscle) were harvested. The organs were imaged to detect fluorescence. When the same LUT was used for the animal and organ images, fluorescence in the organs was not detectable. As such, the low end of the animal scale was expanded such that the images of the organs could be evaluated (FIG. 14). For example, the “Organs 1/10th scale” was used for the images of FIGS. 15A-15D and the “Organs 1/100th scales was used for the images of FIGS. 16A-16D.

Data set [3] can be described thus: Excitation and emission of the NIR imaging probe. The class given is physicochemical. An excerpt: The NIR imaging probe used was the compound of Formula 1; excitation 773 nm and emission 790 nm or independently, Formula 2, excitation 772 nm and emission 787 nm.
For data set [4] the following is noted: mouse, in vivo.
In the next data set the test system is A431 cells. The data set can be described thus: In vitro cell-based assay of non-specific binding, A431 cells. Conditions: dyes compared to 800CW. An excerpt: (§1) FIGS. 2A, and 2B illustrate in vitro cell-based analyses for A549 cells (A) and A431 cells (B).
(§2) In vitro cell-based assays with two carcinoma cell lines (A431 and A549) were done to assess non-specific binding of the compound of Formula 1 and the compound of Formula 2. The dyes were compared to 800CW.
(§3) The fluorescence in each well was quantified with the instrument software.

A short description of data set [5]: Excised organs imaged at 24 hrs. It is filed as in vivo, nude mice. The following applies: for detected in the brain: excised organs at 24 hrs. On the procedure:
(§4) Animals injected with the probes were imaged over time using the 800 fluorescence channel of the Pearl Impulse Imaging System (LI-COR Biosciences). Clearance profiles for 800CW, the compound of Formula 1, and the compound of Formula 2 were carried out in nude mice (dose of 1 nmole for all compounds). Serial images and excised organs were evaluated over a 24 hr period. A Pearl Impulse small animal imaging system was used for all animal and organ image acquisitions.
Organs were excised at 24 hrs and imaged.

A short description of data set [6]: Solubility in water or aqueous media. The class given is physicochemical. Conditions: for concentration when re-suspended in water: in some embodiments; for solubility in water: stated as 'can be'.
Data set [7] is described as follows: Excised organ evaluation at 24 hrs and 72 hrs. The class given is in vivo, mouse. An excerpt: FIGS. 11A-11H show images of various mouse organs after administration. Fluorescence images of various mouse organs at 24 and 72 hrs post-administration for the comparative control (FIG. 11A), compound of Formula 1 (FIGS. 11C and 11E) and compound of Formula 2 (FIGS. 11B and 11D). Organs examined included: heart (Ht), lungs (Ln), kidney (Kd), liver (Lv), spleen (Spl), intestine (Int), brain (Br), and muscle (Ms). […] FIGS. 11F-11H show intraoperative fluorescence (800 nm, compound of Formula 2) (FIG. 11G), white light (FIG. 11F), and composite images of the liver, gall bladder, and bile duct for compound of Formula 2 (0.1 nmole) (FIG. 11H).
Fluorescent signal intensities of various organs were examined at 24 hrs and 72 hrs for the compound of Formula 1 and the compound of Formula 2 (FIG. 11A-11E). Organs examined included: heart (Ht), lungs (Ln), kidney (Kd), liver (Lv), spleen (Spl), intestine (Int), brain (Br), and muscle (Ms).

Data set [8] is described as follows: Clearance profiles by whole-animal fluorescence imaging (dorsal and ventral) in nude mice. The class given is in vivo. Here is the method:
as §4
Non-invasive imaging will not capture signals for the full depth of the animal but the intensity values are useful to show a relative trend.
Another way of examining fluorescence signals is by measuring the % of the compound remaining at a particular time point. The 30 min time point is the baseline to which other time points are normalized.
The percent signal remaining at each time is shown with the 30 min time point post-injection, which is used as the baseline.

For another data set, the system named is A549 cells. The data set can be described thus: In vitro cell-based assay of non-specific binding, A549 cells. The following applies: dyes compared to 800CW.
Text: as §1, §2, §3

Data set [9] in a line: Biliary tract imaging, comparison with ICG and dose response. The class given is in vivo, mouse. Conditions: for time post-intravenous administration by which gall bladder is visible: continues visible at 2 hrs and 5 hrs. On the procedure: A Pearl Impulse small animal imaging system was used for all animal and organ image acquisitions.
A comparison of the dose responses for the compound of Formula 2 are shown in FIG. 10B (1 nmole), FIG. 10C (0.5 nmole), and FIGS. 10D and 10E (0.1 nmole) at time periods of 1 min, 30 min, 2 hrs, 5 hrs, and 24 hrs. All images are presented using the same LUT table except FIG. 10E where the LUT for FIG. 10D has been reduced to brighten the 800 nm signal so they are visible.

[10] abbreviates: 30 min post-injection (baseline), 1 nmole, whole body, ventral view.
Setting [11] is: 120 min post-injection, normalized to 30 min, 1 nmole.
[12] abbreviates: 300 min post-injection, normalized to 30 min, 1 nmole.
Setting [13] is: 1440 min post-injection, normalized to 30 min, 1 nmole.

Like-named read-outs stand apart in the source and are kept apart here.

On to `CC1(C)C(/C=C/C=C/C=C/C=C2/N(CCCCS(=O)(=O)[O-])c3ccc4ccccc4c3C2(C)C)=[N+](CCCCS(=O)(=O)[O-])c2ccc3ccccc3c21.[Na+]` [ICG, indocyanine green], for which the “fluorescent signal in urine” value in data set [1] is recorded as “No fluorescent signal”.

With `CC1(C)C(/C=C/C2=C(Oc3ccc(S(=O)(=O)O)cc3)C(=C/C=C3/N(CCCCS(=O)(=O)O)c4ccc(S(=O)(=O)[O-])cc4C3(C)C)/CCC2)=[N+](CCCCS(=O)(=O)O)c2ccc(S(=O)(=O)O)cc21` [Compound of Formula 1, 2-((E)-2-((E)-3-(2-((E)-3,3-dimethyl-5-sulfonato-1-(4-sulfonatobutyl)indolin-2-ylidene)ethylidene)-2-(4-sulfonatophenoxy)cyclohex-1-en-1-yl)vinyl)-3,3-dimethyl-1-(4-sulfonatobutyl)-3H-indol-1-ium-5-sulfonate], the “signal in the liver” value in [2] (excised organs, 24 hours) is recorded as “higher signal compared to 800CW”. Moreover, in data set [2], the plasma protein binding entry was “increased (higher) plasma protein binding of 800BK than 800CW”. The “retention time in the liver” value in data set [2] (nude mice, 1 nmole IV) is “longer retention time in the liver compared to 800CW and 800NOS”. In data set [2] (nude mice), the “excretion / elimination route” value is given as “excreted renally”. Further, the “signal in kidneys and liver, organ 1/10th LUT scale” value in [2] is given as “detectable signal”. The compound also returned an emission in [3] of 790 nm. In data set [3], this compound came in with an excitation of 773 nm. Also, the primary elimination route result in data set [4] is “renal”. Besides, the non-specific binding result in the data set with A431 cells and in the data set on A549 cells was “more comparable to 800CW” throughout. Moreover, the “retention in liver and kidney, excised organs” value in [5] (24 hrs post injection) is “retained at higher levels in the liver and kidney compared to the compound of Formula 2”. In data set [5], the “detected in the brain” value is given as “None”. Also, the “concentration when re-suspended in water” value in data set [6] was “at least 200 mg/mL”. Moreover, the solubility in water result in [6] is “highly soluble in water”. In addition, the “fluorescent signal in excised organs” value is “some signal in the liver and kidney” in data set [7] (24 hrs post administration); “diminished substantially” in data set [7] (72 hrs post administration). For the same compound, the “bladder signal, ventral images” value in data set [8] (1 nmole) is listed as “strongest signal”. The “clearance pattern (route), ventral images” value in data set [8] (1 nmole) is reported as “clear rapidly via the kidney”. Moreover, the percent signal remaining in data set [8] (setting [10]) was 100%; in data set [8] (setting [11]) it was 81%; in data set [8] (setting [12]), 19%; in [8] (setting [13]) it was 1.4%. For the same compound, the “movement through tissues and retention in organs” value in data set [8] (in vivo data) is listed as “moves rapidly through the tissues but is retained for an extended period in organs”. The “clearance (whole body fluorescence) compared to compound of Formula 2” value in data set [8] (ventral view, 1 nmole) is given as “slower clearance”.

For the compound `CC1(C)C(/C=C/C2=C(Oc3ccccc3)C(=C/C=C3/N(CCCCS(=O)(=O)O)c4ccc(S(=O)(=O)[O-])cc4C3(C)C)/CCC2)=[N+](CCCCS(=O)(=O)O)c2ccc(S(=O)(=O)O)cc21` [Compound of Formula 2, 2-((E)-2-((E)-3-(2-((E)-3,3-dimethyl-5-sulfonato-1-(4-sulfonatobutyl)indolin-2-ylidene)ethylidene)-2-phenoxycyclohex-1-en-1-yl)vinyl)-3,3-dimethyl-1-(4-sulfonatobutyl)-3H-indol-1-ium-5-sulfonate], in [9] (0.1 nmole dose, same scale as 1 nmole and 0.5 nmole series), the “detection signal in images” value is “very low detection signal”. Besides, in data set [9] (0.1 nmole dose, scale adjusted (FIG. 10E)), the “gall bladder target region visibility” value is listed as “visible on a very low background”. The “time post-intravenous administration by which gall bladder is visible” value in data set [9] (0.5 nmole dose) is listed as not above 30 min. For the same compound, in [9] (1 nmole dose), the “time post-intravenous administration by which gall bladder is visible” value was not above 30 min. The intestinal signal entry in data set [2] (24 hours post injection) is reported as “barely detectable”. Besides, in data set [2], the plasma protein binding entry was “low plasma protein binding activity”; the “signal in kidneys and liver, organ 1/10th LUT scale” value is “detectable signal”. In data set [2] (nude mice, 1 nmole IV), the “clearance from the whole body to the biliary system” value is on record as “rapid”, the “excretion into the intestines” value is on record as “rapid excretion into the intestines”, the “retention time in the liver” value was “very short retention time in the liver” and the “time at which the liver was visible” value was determined as 15 min. Also, in data set [2] (nude mice, 1 nmole IV), the “time during which predominant signal was in the intestines” value was 2 to 6 h. The “excretion / elimination route” value in data set [2] (nude mice) was “eliminated from the body via the biliary tract (liver, gall bladder and bile ducts) and intestines”. Besides, in data set [3], the emission was determined as 787 nm and the excitation was 772 nm. The “fluorescent signal in urine” value in data set [4] is “slight fluorescence”. In addition, the non-specific binding result with A431 cells was “significant increase in non-specific binding compared to either the compound of Formula 1 and 800CW by two-fold”. For the same compound, the “liver signals, excised organs” value in [5] (24 hrs post injection) was “lower liver signals at 24 hrs when compared to 800CW and the compound of Formula 1”. For the same compound, in data set [5], the “detected in the brain” value was “None”. Also, in data set [6], the “concentration when re-suspended in water” value is “at least 200 mg/mL” and the solubility in water entry was “highly soluble in water”. In addition, the “fluorescent signal in excised organs” value in [7] (24 hrs post administration) was “some signal in the liver and kidney”. Further, the “fluorescent signal in excised organs” value in data set [7] (72 hrs post administration) was “diminished substantially”. Also, in [8] (1 nmole), the “clearance pattern (route), ventral images” value was “clears through the liver”. In [8] (setting [10]), this compound displayed a percent signal remaining of 100%. The percent signal remaining in [8] (setting [11]) came out at 70%. The percent signal remaining result in [8] (120 min post-injection, normalized to 30 min, 1 nmole, listed as compound of Formula 2) was “greatest reduction”. Moreover, the “fluorescence signal, dorsal view” value in data set [8] (2 hrs post injection, 1 nmole) is recorded as “high signal, emanating in the liver region”. In data set [8] (setting [12]), this compound returned a percent signal remaining of 14%. Also, the whole body signal entry in data set [8] (5 hr post injection, 1 nmole) is “low compared to 800CW and the compound of Formula 1”. This compound showed a percent signal remaining in data set [8] (setting [13]) of 1.4%. In addition, the “whole body fluorescence signal” value in data set [8] (ventral view, 1 nmole) was “lower overall than the signal for 800CW and the compound of Formula 1”. Besides, the non-specific binding result with A549 cells is “significant increase in non-specific binding compared to either the compound of Formula 1 and 800CW by two-fold”.
